Reference: patent US10662159B2, “ABHD6 and dual ABHD6/MGL inhibitors and their uses” (MAKScientific, LLC, priority 2017, dated 2020)

How the values were obtained:
Type in all cases: biochemical
[1] = molecular target: hMGL (Homo sapiens (Human), UniProt Q99685); test: Fluorescent assay for hMGL (AHMMCE substrate hydrolysis); conditions: E. coli lysate containing hMGL, read-out: hMGL Inhibition IC50
Experimental: (§1) Certain compounds were tested for their ABHD6 and dual ABHD6/MGL inhibitory activity, which is expressed as % of inhibition or IC50 values in Table 1. The percentage of inhibition describes the percentage by which the inhibitor reduces the velocity/rate of 2-AG hydrolysis by ABHD6, and MGL or AEA hydrolysis by FAAH. […] The lower the IC50 values, the higher its inhibitory activity. A detailed description of the methods used to test inhibitory activity of compounds is given below.
Preparation of Human MAGL (hMAGL)
Fluorescent Assay Protocol for hMGL
This medium throughput assay involved a 96-well plate format in which hMGL activity was monitored by the hydrolysis of the substrate […] (AHMMCE) to form the fluorescent product, coumarin. […] Upon the addition of AHMMCE, the reaction was incubated at 25° C. for 120 min; fluorescence readings were taken every 15 min at 360 nm/460 nm (λexcitation/λemission) using a Synergy HT Plate Reader (Bio-Tek, Winooski, Vt.). […] External standards were used to convert relative fluorescence units to the amount of 4-methylcoumarin formed. All MGL assays were performed in triplicate for each inhibitor concentration, and IC50 values were calculated using Prizm software (GraphPad Software, Inc., San Diego, Calif.).

[2] = molecular target: Rat ΔTM FAAH (Rattus norvegicus (Rat), UniProt P97612); test: Fluorescent assay for rat ΔTM FAAH (AAMCA substrate); conditions: ΔTM rFAAH, AAMCA 20 μM; read-out: rFAAH Inhibition IC50
Sequence of Rat ΔTM FAAH (P97612 30-579): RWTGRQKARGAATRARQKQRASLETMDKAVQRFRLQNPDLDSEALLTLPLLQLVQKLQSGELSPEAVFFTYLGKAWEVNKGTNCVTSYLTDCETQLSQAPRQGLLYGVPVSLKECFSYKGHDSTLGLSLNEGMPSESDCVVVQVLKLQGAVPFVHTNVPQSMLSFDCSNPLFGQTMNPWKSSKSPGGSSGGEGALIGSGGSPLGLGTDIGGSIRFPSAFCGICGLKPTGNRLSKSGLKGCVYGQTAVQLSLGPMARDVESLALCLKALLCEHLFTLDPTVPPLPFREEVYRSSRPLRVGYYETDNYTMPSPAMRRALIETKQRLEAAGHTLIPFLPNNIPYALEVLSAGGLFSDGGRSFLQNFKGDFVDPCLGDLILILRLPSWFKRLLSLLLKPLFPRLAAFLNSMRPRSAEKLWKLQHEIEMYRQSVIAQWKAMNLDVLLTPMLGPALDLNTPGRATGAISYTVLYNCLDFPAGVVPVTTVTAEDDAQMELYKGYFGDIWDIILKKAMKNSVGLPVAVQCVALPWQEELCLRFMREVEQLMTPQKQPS
Experimental: Certain compounds were tested for their ABHD6 and dual ABHD6/MGL inhibitory activity, which is expressed as % of inhibition or IC50 values in Table 1. The percentage of inhibition describes the percentage by which the inhibitor reduces the velocity/rate of 2-AG hydrolysis by ABHD6, and MGL or AEA hydrolysis by FAAH. The IC50 is the concentration of the inhibitor, which results in 50% inhibition of the velocity/rate of 2-AG hydrolysis by ABHD6 or MGL. The IC50 is the concentration of the inhibitor, which results in 50% inhibition of the velocity/rate of AEA hydrolysis by FAAH. The lower the IC50 values, the higher its inhibitory activity. A detailed description of the methods used to test inhibitory activity of compounds is given below.
Example 79. Preparation of Transmembrane Domain-Deleted Rat FAAH (ΔTM rFAAH)
Rat ΔTM FAAH was expressed in E. coli cells and purified using the procedure disclosed by Patricelli et al. Biochemistry (1998) 37: 15177-15187.
Example 81. Fluorescent Assay Protocol for Rat ΔTM FAAH
The fluorescence reading at the 3 hour time point (linear enzyme kinetics) was used to calculate percent inhibition based on control assays without inhibitor present. All FAAH assays were performed in triplicate for each inhibitor concentration, and IC50 values determined using Prizm software (GraphPad Software, Inc.).

[3] = molecular target: hABHD6 (Homo sapiens (Human), UniProt Q9BV23); test: Fluorescent assay for hABHD6 (AHMMCE substrate hydrolysis); conditions: membrane fraction containing full-length hABHD6, 20 μM AHMMCE; read-out: ABHD6 Inhibition IC50
Sequence of hABHD6 (Q9BV23 whole entry): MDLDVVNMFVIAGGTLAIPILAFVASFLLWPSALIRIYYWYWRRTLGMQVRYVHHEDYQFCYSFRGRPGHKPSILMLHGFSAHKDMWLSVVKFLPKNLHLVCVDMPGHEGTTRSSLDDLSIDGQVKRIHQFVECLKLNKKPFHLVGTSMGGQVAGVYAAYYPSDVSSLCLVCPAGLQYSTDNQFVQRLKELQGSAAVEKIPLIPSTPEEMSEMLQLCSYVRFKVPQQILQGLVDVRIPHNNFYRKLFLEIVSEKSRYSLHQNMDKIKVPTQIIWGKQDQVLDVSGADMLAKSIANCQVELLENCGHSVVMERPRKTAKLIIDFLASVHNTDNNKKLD
Experimental: as §1
Fluorescent Assays Protocol for hABHD6
Initial Fluorescent Inhibition Assay (3-Point)—
In each well of a 96-well plate 8 μL of membrane fraction containing full-length hABHD6 (1 μg total protein) was mixed with 168 μL of assay buffer (50 mM Tris-HCl, pH 7.6), and 20 μL of diluted compound (diluted in a dilution buffer consisting of 50% DMSO/50% assay buffer v/v). Each plate was incubated at RT for 15 minutes before adding 4 μL of 1 mM AHMMCE substrate (final concentration of 20 μM AHMMCE and final volume of 200 μL). The reaction was allowed to proceed for 1 hr at RT before the fluorescence was read at λex 360 nm and λem 460 nm and the inhibition calculated. Each experiment can test 8 compounds at three concentrations (usually 10 μM, 1 μM, and 100 nM).
IC50 Determination Assay (8-Point)—
A more detailed assay with an extended range tests compounds over 8 concentrations depending on the pre-determined approximate IC50 value from the initial screen. […] The assay was conducted in 96 well plate with each well containing the same reaction mixture detailed above in the 3-point screen. The relative fluorescence is quantified into coumarin produced by using a standard curve of HMMC in triplicate on each plate. Results are normalized to the negative control wells and the IC50 is determined using a non-linear regression curve fit in Prism, version 5 (GraphPad, San Diego, Calif.).

Sequence of hMGL (Q99685 whole entry): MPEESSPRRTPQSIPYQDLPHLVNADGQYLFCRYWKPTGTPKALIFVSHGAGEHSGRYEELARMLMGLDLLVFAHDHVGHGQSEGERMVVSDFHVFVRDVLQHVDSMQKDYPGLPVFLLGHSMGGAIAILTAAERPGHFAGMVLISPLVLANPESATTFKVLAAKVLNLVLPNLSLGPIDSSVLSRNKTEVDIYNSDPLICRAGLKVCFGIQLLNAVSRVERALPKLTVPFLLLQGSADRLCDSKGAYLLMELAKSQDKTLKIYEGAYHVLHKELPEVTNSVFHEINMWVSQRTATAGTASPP

Row | SMILES | IC50 [1] | IC50 [2] | IC50 [3]
1 | CN(C)CCOc1ccc2c(c1)CN(C(=O)OC(C(F)(F)F)C(F)(F)F)C2 [Example 46, 1,1,1,3,3,3-Hexafluoropropan-2-yl 5-(2-(dimethylamino)ethoxy)isoindoline-2-carboxylate] | 0.01 to 0.1 µM | > 1 µM | 0.01 to 0.1 µM
2 | O=C(OC(C(F)(F)F)C(F)(F)F)N1Cc2ccc(OCCCF)cc2C1 [Example 42, 1,1,1,3,3,3-Hexafluoropropan-2-yl 5-(3-fluoropropoxy)isoindoline-2-carboxylate] | > 1 µM | > 1 µM | 0.01 to 0.1 µM
3 | O=C(OC(C(F)(F)F)C(F)(F)F)N1Cc2ccc(OCCN3CCCCC3)cc2C1 [Example 48, 1,1,1,3,3,3-Hexafluoropropan-2-yl 5-(2-(piperidin-1-yl)ethoxy)isoindoline-2-carboxylate] | 0.01 to 0.1 µM | > 1 µM | 0.01 to 0.1 µM
4 | CC1(C)C2C(=O)N(OC(=O)N3Cc4ccc(N5CCOCC5)cc4C3)C(=O)C21 (centres unmarked) [Example 39, 6,6-Dimethyl-2,4-dioxo-3-azabicyclo[3.1.0]hexan-3-yl 5-morpholinoisoindoline-2-carboxylate] | > 1 µM | > 1 µM | 0.01 to 0.1 µM
5 | O=C(OC(C(F)(F)F)C(F)(F)F)N1Cc2ccc(-c3ccccc3)cc2C1 [Example 25, 1,1,1,3,3,3-Hexafluoropropan-2-yl 5-phenylisoindoline-2-carboxylate] | > 1 µM | > 1 µM | 0.01 to 0.1 µM
6 | O=C(OC(C(F)(F)F)C(F)(F)F)N1Cc2ccc(N3CCOCC3)cc2C1 [Example 32, 1,1,1,3,3,3-Hexafluoropropan-2-yl 5-morpholinoisoindoline-2-carboxylate] | > 1 µM | > 1 µM | 0.01 to 0.1 µM
7 | O=C(COc1ccc2c(c1)CN(C(=O)OC(C(F)(F)F)C(F)(F)F)C2)N1CCOCC1 [Example 50, 1,1,1,3,3,3-Hexafluoropropan-2-yl 5-(2-morpholino-2-oxoethoxy)isoindoline-2-carboxylate] | 0.01 to 0.1 µM | > 1 µM | 0.01 to 0.1 µM
8 | O=C(OC(C(F)(F)F)C(F)(F)F)N1Cc2ccc(OCCN3CCOCC3)cc2C1 [Example 44, 1,1,1,3,3,3-Hexafluoropropan-2-yl 5-(2-morpholinoethoxy)isoindoline-2-carboxylate] | > 1 µM | > 1 µM | 0.1 to 1 µM
9 | O=C(OC(C(F)(F)F)C(F)(F)F)N1Cc2ccc(N3CCCC3)cc2C1 [Example 30, 1,1,1,3,3,3-Hexafluoropropan-2-yl 5-(pyrrolidin-1-yl)isoindoline-2-carboxylate] | > 1 µM | > 1 µM | 0.01 to 0.1 µM
10 | COc1cccc2c1CCN(C(=O)OC(C(F)(F)F)C(F)(F)F)C2 [Example 22, 1,1,1,3,3,3-Hexafluoropropan-2-yl 5-methoxy-3,4-dihydroisoquinoline-2(1H)-carboxylate] | > 1 µM | > 1 µM | 0.01 to 0.1 µM
11 | O=C(OC(C(F)(F)F)C(F)(F)F)N1Cc2ccc(N3CCS(=O)(=O)CC3)cc2C1 [Example 31, 1,1,1,3,3,3-Hexafluoropropan-2-yl 5-(1,1-dioxidothiomorpholino)isoindoline-2-carboxylate] |  | > 1 µM | 0.01 to 0.1 µM
12 | CC1(C)C2C(=O)N(OC(=O)N3CCc4c(Br)cccc4C3)C(=O)C21 (centres unmarked) [Example 35, 6,6-Dimethyl-2,4-dioxo-3-azabicyclo[3.1.0]hexan-3-yl 5-bromo-3,4-dihydroisoquinoline-2(1H)-carboxylate] | > 1 µM | > 1 µM | 0.01 to 0.1 µM
13 | O=C(OC(CF)CF)N1CCc2c(Br)cccc2C1 [Example 5, 1,3-Difluoropropan-2-yl 5-bromo-3,4-dihydroisoquinoline-2(1H)-carboxylate] | > 1 µM | > 1 µM | > 1 µM
14 | COc1ccc2c(c1)CCN(C(=O)OC(C(F)(F)F)C(F)(F)F)C2 [Example 23, 1,1,1,3,3,3-Hexafluoropropan-2-yl 6-methoxy-3,4-dihydroisoquinoline-2(1H)-carboxylate] | > 1 µM | > 1 µM | 0.01 to 0.1 µM

Next, values leading:

Row | IC50 [1] | IC50 [2] | IC50 [3] | SMILES
15 | > 1 µM | > 1 µM | 0.1 to 1 µM | O=C(OC(C(F)(F)F)C(F)(F)F)N1CCc2c(cccc2-c2ccccc2)C1 [Example 28, 1,1,1,3,3,3-Hexafluoropropan-2-yl 5-phenyl-3,4-dihydroisoquinoline-2(1H)-carboxylate]
16 | > 1 µM | > 1 µM | 0.01 to 0.1 µM | O=C(O[C@H](CO)C(F)(F)F)N1CCc2c(Br)cccc2C1 [Example 40, (R)-1,1,1-trifluoro-3-hydroxypropan-2-yl 5-bromo-3,4-dihydroisoquinoline-2(1H)-carboxylate]
17 | 0.01 to 0.1 µM | > 1 µM | 0.01 to 0.1 µM | O=C(OC(C(F)(F)F)C(F)(F)F)N1Cc2ccc(OCCN3CCCC3)cc2C1 [Example 49, 1,1,1,3,3,3-Hexafluoropropan-2-yl 5-(2-(pyrrolidin-1-yl)ethoxy)isoindoline-2-carboxylate]
18 | > 1 µM | > 1 µM | 0.01 to 0.1 µM | O=C(OC(C(F)(F)F)C(F)(F)F)N1Cc2ccc(OCC3CC3)cc2C1 [Example 43, 1,1,1,3,3,3-Hexafluoropropan-2-yl 5-(cyclopropylmethoxy)isoindoline-2-carboxylate]
19 | > 1 µM | > 1 µM | > 1 µM | COc1ccc2c(c1)CN(C(=O)ON1C(=O)C3C(C1=O)C3(C)C)C2 (centres unmarked) [Example 38, 6,6-Dimethyl-2,4-dioxo-3-azabicyclo[3.1.0]hexan-3-yl 5-methoxyisoindoline-2-carboxylate]
20 | > 1 µM | > 1 µM | 0.01 to 0.1 µM | O=C(OC(C(F)(F)F)C(F)(F)F)N1CCc2c(cccc2OCCCF)C1 [Example 41, 1,1,1,3,3,3-Hexafluoropropan-2-yl 5-(3-fluoropropoxy)-3,4-dihydroisoquinoline-2(1H)-carboxylate]
21 | > 1 µM | > 1 µM | 0.1 to 1 µM | O=C1C2CC2C(=O)N1ON1CCc2c(Br)cccc2C1 (centres unmarked) [Example 37, 3-((5-Bromo-3,4-dihydroisoquinolin-2(1H)-yl)oxy)-3-azabicyclo[3.1.0]hexane-2,4-dione]
22 | > 1 µM | > 1 µM | 0.1 to 1 µM | CN1CCN(c2ccc3c(c2)CN(C(=O)OC(C(F)(F)F)C(F)(F)F)C3)CC1 [Example 29, 1,1,1,3,3,3-Hexafluoropropan-2-yl 5-(4-methylpiperazin-1-yl)isoindoline-2-carboxylate]
23 | > 1 µM | > 1 µM | 0.01 to 0.1 µM | O=C(OC(C(F)(F)F)C(F)(F)F)N1Cc2ccc(NCCN3CCOCC3)cc2C1 [Example 47, 1,1,1,3,3,3-Hexafluoropropan-2-yl 5-((2-morpholinoethyl)amino)isoindoline-2-carboxylate]
24 | 0.01 to 0.1 µM | 0.01 to 0.1 µM | 0.01 to 0.1 µM | O=C(OC(C(F)(F)F)C(F)(F)F)N1CC2(CCC(Oc3cccc(F)c3)C2)C1 (centres unmarked) [Example 59, 1,1,1,3,3,3-Hexafluoropropan-2-yl 6-(3-fluorophenoxy)-2-azaspiro[3.4]octane-2-carboxylate]
